Data published in paper PMC3961306, “Comparison of the Cancer Gene Targeting and Biochemical Selectivities of All Targeted Kinase Inhibitors Approved for Clinical Use” (PLoS ONE, 2014).

What was measured:
Experiment in all cases: Kinase profiling in a biochemical assay panel (mobility shift assays and ELISA), %-inhibition at 1 μM; selectivity entropy
[1] = target: T1, panel of more than 300 wild-type and mutant kinases (313 kinase panel) (Homo sapiens, UniProt O00418); conditions: kinase EEF2K; compound at 1 μM
T1 sequence (O00418 1-725): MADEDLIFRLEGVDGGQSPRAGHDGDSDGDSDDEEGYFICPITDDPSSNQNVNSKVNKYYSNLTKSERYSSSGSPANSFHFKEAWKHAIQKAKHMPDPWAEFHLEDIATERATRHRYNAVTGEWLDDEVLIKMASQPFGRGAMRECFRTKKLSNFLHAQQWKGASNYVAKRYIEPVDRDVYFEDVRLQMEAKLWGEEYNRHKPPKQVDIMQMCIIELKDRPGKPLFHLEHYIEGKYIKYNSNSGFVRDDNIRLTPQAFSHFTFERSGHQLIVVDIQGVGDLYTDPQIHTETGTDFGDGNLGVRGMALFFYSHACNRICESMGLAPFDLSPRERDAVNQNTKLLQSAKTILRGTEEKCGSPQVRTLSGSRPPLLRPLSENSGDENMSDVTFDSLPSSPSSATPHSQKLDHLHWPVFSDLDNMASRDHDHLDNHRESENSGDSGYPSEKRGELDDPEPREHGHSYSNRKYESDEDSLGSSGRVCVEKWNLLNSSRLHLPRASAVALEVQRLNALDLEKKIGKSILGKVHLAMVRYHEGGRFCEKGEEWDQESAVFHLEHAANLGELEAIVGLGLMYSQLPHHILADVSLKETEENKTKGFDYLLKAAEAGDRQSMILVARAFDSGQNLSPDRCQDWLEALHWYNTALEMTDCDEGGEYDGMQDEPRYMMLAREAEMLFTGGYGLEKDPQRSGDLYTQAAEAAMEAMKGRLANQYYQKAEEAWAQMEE

[2] = target: T2, panel of more than 300 wild-type and mutant kinases (313 kinase panel) (Homo sapiens, UniProt P52564); conditions: kinase MAP2K6; compound at 1 μM
T2 sequence (P52564 1-334): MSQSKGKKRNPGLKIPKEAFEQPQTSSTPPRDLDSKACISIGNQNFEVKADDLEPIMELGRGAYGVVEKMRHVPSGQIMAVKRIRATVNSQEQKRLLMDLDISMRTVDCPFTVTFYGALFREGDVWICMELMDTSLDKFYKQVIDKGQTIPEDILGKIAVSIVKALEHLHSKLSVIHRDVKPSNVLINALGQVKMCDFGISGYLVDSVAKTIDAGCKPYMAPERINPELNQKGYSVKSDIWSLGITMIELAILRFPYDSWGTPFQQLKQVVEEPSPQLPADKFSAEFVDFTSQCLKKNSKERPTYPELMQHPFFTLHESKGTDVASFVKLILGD

[3] = target: panel of more than 300 wild-type and mutant kinases (313 kinase panel) (Homo sapiens, UniProt P45984); conditions: kinase JNK2; compound at 1 μM
Sequence of panel of more than 300 wild-type and mutant kinases (313 kinase panel) (Homo sapiens, UniProt P45984) (P45984 whole entry, change not shown): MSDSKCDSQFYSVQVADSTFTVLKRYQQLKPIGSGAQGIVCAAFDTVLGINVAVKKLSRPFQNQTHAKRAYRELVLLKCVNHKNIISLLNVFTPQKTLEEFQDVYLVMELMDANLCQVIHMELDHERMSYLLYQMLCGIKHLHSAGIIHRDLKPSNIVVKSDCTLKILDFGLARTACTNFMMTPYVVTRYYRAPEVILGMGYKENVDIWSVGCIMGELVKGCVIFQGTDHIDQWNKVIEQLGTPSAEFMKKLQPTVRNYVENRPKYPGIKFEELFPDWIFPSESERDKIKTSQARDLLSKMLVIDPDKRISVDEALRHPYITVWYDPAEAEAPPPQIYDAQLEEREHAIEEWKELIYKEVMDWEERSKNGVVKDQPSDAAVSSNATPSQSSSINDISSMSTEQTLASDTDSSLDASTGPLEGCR

[4] = target: panel of more than 300 wild-type and mutant kinases (313 kinase panel) (Homo sapiens, UniProt P04049)
Sequence of panel of more than 300 wild-type and mutant kinases (313 kinase panel) (Homo sapiens, UniProt P04049) (P04049 whole entry, change not shown): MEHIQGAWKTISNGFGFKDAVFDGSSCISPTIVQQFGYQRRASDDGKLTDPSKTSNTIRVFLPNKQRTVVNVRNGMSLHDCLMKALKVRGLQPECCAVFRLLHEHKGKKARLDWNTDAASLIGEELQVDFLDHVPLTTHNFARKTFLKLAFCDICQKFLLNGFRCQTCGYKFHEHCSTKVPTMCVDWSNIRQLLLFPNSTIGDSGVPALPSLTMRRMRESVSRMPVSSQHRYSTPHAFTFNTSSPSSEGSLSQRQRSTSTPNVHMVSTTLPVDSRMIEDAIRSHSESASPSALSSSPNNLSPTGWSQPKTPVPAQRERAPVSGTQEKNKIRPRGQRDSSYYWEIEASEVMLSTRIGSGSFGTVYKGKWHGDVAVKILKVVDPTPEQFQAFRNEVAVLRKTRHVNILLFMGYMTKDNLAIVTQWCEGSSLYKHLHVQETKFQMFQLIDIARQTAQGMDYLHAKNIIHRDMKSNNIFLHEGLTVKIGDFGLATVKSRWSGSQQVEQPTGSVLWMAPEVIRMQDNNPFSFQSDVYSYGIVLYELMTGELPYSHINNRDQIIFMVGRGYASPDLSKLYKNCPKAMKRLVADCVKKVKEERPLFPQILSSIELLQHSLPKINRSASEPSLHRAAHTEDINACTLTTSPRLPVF

[5] = target: T3, panel of more than 300 wild-type and mutant kinases (313 kinase panel) (Homo sapiens, UniProt Q12852)
T3 sequence (Q12852 1-859): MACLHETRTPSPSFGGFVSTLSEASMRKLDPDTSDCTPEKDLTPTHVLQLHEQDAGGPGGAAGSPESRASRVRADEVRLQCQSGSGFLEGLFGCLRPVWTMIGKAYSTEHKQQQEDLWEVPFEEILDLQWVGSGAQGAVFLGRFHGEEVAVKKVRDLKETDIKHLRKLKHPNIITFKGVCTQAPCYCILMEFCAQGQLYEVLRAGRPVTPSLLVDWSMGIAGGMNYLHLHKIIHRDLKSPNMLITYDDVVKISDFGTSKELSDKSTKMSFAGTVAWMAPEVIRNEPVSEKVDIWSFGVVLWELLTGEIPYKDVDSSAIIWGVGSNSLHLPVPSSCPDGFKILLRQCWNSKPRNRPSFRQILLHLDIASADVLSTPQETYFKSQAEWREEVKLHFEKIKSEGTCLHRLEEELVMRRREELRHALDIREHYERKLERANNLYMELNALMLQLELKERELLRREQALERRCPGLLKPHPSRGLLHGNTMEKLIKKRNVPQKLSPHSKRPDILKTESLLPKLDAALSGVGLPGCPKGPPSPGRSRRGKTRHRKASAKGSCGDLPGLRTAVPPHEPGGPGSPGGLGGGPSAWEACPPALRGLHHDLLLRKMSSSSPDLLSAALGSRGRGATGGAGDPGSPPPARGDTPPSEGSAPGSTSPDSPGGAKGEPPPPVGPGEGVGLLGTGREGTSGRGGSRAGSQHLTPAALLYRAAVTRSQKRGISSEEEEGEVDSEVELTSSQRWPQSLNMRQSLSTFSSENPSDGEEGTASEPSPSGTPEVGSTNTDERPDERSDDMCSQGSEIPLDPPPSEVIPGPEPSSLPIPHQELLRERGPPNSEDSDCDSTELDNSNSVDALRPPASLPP

[6] = target: panel of more than 300 wild-type and mutant kinases (313 kinase panel) (Homo sapiens, UniProt P06241); conditions: kinase FYN; compound at 1 μM
Sequence of panel of more than 300 wild-type and mutant kinases (313 kinase panel) (Homo sapiens, UniProt P06241) (P06241 whole entry, change not shown): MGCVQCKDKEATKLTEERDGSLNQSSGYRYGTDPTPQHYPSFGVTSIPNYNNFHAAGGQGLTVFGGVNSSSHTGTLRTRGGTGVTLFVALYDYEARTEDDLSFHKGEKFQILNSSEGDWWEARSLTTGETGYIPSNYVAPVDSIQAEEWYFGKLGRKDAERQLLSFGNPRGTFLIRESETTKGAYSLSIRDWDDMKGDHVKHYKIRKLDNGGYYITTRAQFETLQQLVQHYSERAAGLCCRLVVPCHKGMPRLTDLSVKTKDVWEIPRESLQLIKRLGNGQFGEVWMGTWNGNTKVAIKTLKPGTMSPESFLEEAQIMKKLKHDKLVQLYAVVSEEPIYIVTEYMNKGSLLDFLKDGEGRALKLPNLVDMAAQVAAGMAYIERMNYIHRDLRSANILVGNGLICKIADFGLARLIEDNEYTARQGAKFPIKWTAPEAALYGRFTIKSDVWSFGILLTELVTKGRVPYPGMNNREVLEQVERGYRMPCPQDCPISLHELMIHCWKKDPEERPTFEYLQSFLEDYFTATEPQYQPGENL

[7] = target: panel of more than 300 wild-type and mutant kinases (313 kinase panel) (Homo sapiens, UniProt P49137); conditions: kinase MAPKAPK2; compound at 1 μM
Sequence of panel of more than 300 wild-type and mutant kinases (313 kinase panel) (Homo sapiens, UniProt P49137) (P49137 whole entry, change not shown): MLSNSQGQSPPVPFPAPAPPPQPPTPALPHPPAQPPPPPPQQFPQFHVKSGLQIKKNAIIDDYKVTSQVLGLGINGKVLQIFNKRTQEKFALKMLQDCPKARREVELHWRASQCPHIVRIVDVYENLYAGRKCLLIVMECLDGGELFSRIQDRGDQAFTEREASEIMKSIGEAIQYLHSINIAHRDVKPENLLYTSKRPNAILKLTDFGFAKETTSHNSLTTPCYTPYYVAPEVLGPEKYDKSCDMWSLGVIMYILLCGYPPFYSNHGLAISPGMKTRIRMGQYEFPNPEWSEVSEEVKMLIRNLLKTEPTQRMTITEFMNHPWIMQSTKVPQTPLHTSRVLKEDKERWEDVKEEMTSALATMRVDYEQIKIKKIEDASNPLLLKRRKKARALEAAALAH

[8] = target: panel of more than 300 wild-type and mutant kinases (313 kinase panel) (Homo sapiens, UniProt P27448); conditions: kinase MARK3; compound at 1 μM
Sequence of panel of more than 300 wild-type and mutant kinases (313 kinase panel) (Homo sapiens, UniProt P27448) (P27448 whole entry, change not shown): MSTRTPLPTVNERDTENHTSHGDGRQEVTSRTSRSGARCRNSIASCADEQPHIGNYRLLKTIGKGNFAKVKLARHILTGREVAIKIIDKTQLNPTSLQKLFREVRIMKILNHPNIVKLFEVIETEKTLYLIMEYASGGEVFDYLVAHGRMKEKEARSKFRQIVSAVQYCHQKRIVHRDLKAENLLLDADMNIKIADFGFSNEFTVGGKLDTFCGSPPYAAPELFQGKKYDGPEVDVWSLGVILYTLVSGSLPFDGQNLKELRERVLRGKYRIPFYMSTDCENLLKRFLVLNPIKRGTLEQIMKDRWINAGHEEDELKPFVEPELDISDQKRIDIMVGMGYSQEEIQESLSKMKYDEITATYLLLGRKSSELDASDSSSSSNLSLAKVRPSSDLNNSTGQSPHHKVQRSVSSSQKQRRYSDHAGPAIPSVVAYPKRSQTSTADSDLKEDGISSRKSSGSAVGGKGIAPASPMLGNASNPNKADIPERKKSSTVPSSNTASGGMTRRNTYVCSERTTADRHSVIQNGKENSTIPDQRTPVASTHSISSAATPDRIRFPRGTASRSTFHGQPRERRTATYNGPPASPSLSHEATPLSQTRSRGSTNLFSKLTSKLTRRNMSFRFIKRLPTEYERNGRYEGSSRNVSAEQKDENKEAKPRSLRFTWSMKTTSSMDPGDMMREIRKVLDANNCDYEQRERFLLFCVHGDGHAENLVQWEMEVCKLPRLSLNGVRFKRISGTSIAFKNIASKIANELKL

[9] = target: panel of more than 300 wild-type and mutant kinases (313 kinase panel) (Homo sapiens, UniProt P42336); conditions: kinase PIK3CA/PIK3R1; 1 μM

Row | SMILES | %-inhibition of EEF2K [1] | %-inhibition of MAP2K6 [2] | %-inhibition of JNK2 [3] | %-inhibition of RAF1 ([4]; kinase RAF1, 1 μM) | %-inhibition of DLK ([5]; kinase DLK, compound at 1 μM) | %-inhibition of FYN [6] | %-inhibition of MAPKAPK2 [7] | %-inhibition of MARK3 [8] | %-inhibition of PIK3CA/PIK3R1 [9] | %-inhibition of RAF1 ([4]; 1 µM) | %-inhibition of DLK ([5]; 1 µM)
1 | O=S(=O)(c1cccc2cnccc12)N1CCCNCC1 [fasudil] | -3.43% | 2.2% | -5% | 8% | -11% | 8.5% | -13% | 13% | -7% |  | 
2 | Cc1cn(-c2cc(NC(=O)c3ccc(C)c(Nc4nccc(-c5cccnc5)n4)c3)cc(C(F)(F)F)c2)cn1 [nilotinib] | 6.34% | 84% | 9% |  |  | 59% | 2.56% | 11% | 16% | 58% | 1.43%
3 | CNC(=O)c1cc(Oc2ccc(NC(=O)Nc3ccc(Cl)c(C(F)(F)F)c3)c(F)c2)ccn1 [regorafenib] | -11% | 93% | 57% | 96% | -13% | 55% | -21% | -3.48% | 41% |  | 
4 | CO[C@H]1C[C@@H]2CC[C@@H](C)[C@@](O)(O2)C(=O)C(=O)N2CCCC[C@H]2C(=O)O[C@H]([C@H](C)C[C@@H]2CC[C@@H](OC(=O)C(C)(CO)CO)[C@H](OC)C2)CC(=O)[C@H](C)/C=C(\C)[C@@H](O)[C@@H](OC)C(=O)[C@H](C)C[C@H](C)/C=C/C=C/C=C/1C [temsirolimus] | -6% | 15% | -4.61% | -0.648% | -6% | -1.39% | -17% | -0.859% | 22% |  | 
5 | CC(=O)Nc1cccc(-n2c(=O)n(C3CC3)c(=O)c3c(Nc4ccc(I)cc4F)n(C)c(=O)c(C)c32)c1 [trametinib] | -3.43% | -21% | -4.73% | 61% | -2.85% | 9% | -0.335% | -3.21% | 0.26% |  | 
6 | COc1cc2c(Nc3ccc(Br)cc3F)ncnc2cc1OCC1CCN(C)CC1 [vandetanib] | -10% | 18% | -4% | 41% | 20% | 88% | -20% | 4% | 23% |  | 
7 | CCCS(=O)(=O)Nc1ccc(F)c(C(=O)c2c[nH]c3ncc(-c4ccc(Cl)cc4)cc23)c1F [vemurafenib] | -5% | 31% | -0.0632% | 96% | 8% | 81% | -16% | -0.226% | 24% |  | 
